# Measurements taken from patent US10513519B2, “Solid forms of (1S,4S)-4-(2-(((3S,4R)-3-fluorotetrahydro-2H-pyran-4-yl)amino)-8-((2,4,6-trichlorophenyl)amino)-9H-purin-9-yl)-1-methylcyclohexane-1-carboxamide and methods of their use” (Signal Pharmaceuticals, LLC, priority 2016, dated 2019).
# System: cancer cell lines
# Assay: Multiplexed cytotoxicity assay: cell proliferation (relative cell count IC50, GI50)
# Assay type: cell-based
# Conditions: Homo sapiens
# Procedure: (§1) Cells are grown in RPMI1640, 10% FBS, 2 mM L-alanyl-L-Glutamine, 1 mM Na pyruvate or a special medium in a humidified atmosphere of 5% CO2 at 37° C. Cells are seeded into 384-well plates and incubated in a humidified atmosphere of 5% CO2 at 37° C. Compounds are added 24 h post cell seeding. At the same time, a time zero untreated cell plate is generated. After a 72 hour incubation period, cells are fixed and stained with fluorescently labeled antibodies and nuclear dye to allow visualization of nuclei, apoptotic cells and mitotic cells. Apoptotic cells are detected using an anti-active caspase-3 antibody. Mitotic cells are detected using an anti phospho-histone-3 antibody. Compounds are serially diluted 3.16-fold and assayed over 10 concentrations in a final assay concentration of 0.1% DMSO from the highest test concentration of 10 μM. Automated fluorescence microscopy was carried out using a Molecular Devices ImageXpress Micro XL high-content imager, and images are collected with a 4× objective.
# (§2) Sixteen-bit TIFF images are acquired and analyzed with MetaXpress 5.1.0.41 software. Cell proliferation is measured by the signal intensity of the incorporated nuclear dye. The cell proliferation assay output is referred to as the relative cell count. To determine the cell proliferation end point, the cell proliferation data output is transformed to percentage of control (POC) using the following formula: POC=relative cell count(compound wells)/relative cell count(vehicle wells)×100
# (§3) GI50 is the concentration needed to reduce the observed growth by half. This is the concentration that inhibits the growth to the level midway between growth in untreated cells and the number of cells seeded in the well (Time zero value). The IC50 values are calculated using nonlinear regression to fit data to a sigmoidal 4 point, 4 parameter One-Site dose response model, where: y(fit)=A+[(B−A)/(1+((C/x)^D))].
# as §1, with “In another experiment, cells were grown” for “Cells are grown”, “Cells were” for “Cells are”, “Compounds were” for “Compounds are”, “plate was” for “plate is”, “cells were” for “cells are”, “images were” for “images are”
# as §2, with “images were” for “images are”, “proliferation was” for “proliferation is”, “output was” for “output is”
# as §3, with “GI50 refers to” for “GI50 is”, “This corresponds to” for “This is”, “values were” for “values are”
# [1] = NCI-H446, 72 h, NCIH446, Lung, SCLC, 72 h
# [2] = NCI-H460, 72 h, NCIH460, Lung, NSCLC, 72 h
# [3] = NCI-H510A, 72 h, NCIH510A, Lung, SCLC
# [4] = NCI-H520, 72 h, NCIH520, Lung, NSCLC, 72 h
# [5] = NCI-H596, 72 h, NCIH596, Lung, NSCLC, 72 h
# [6] = NCI-H661, 72 h, NCIH661, Lung, NSCLC, 72 h
# [7] = NTERA-2-cl-D1, 72 h, NTERA2CLD1, Testis, 72 h
# [8] = OE19, 72 h, OE19, Head and Neck, Esophageal, 72 h
# [9] = OE33, 72 h, OE33, Head and Neck, Esophageal, 72 h
# [10] = OVCAR-3, 72 h, OVCAR3, Female GU, Ovary, 72 h
# [11] = PANC-1, 72 h, PANC1, Pancreas, 72 h
# [12] = PSN1, 72 h, PSN1, Pancreas, 72 h
# [13] = RL95-2, 72 h, RL952, Female GU, Uterus, 72 h
# [14] = RPMI-6666, RPMI6666 (Hematopoietic and lymphoid, Lymphoma)
# [15] = RPMI-7951, RPMI7951 (Skin, Melanoma)
# [16] = RPMI-8226, 72 h, RPMI8226, Hematopoietic and lymphoid, Myeloma, 72 h
# [17] = RS4-11, RS411 (Hematopoietic and lymphoid, Leukemia)
# [18] = Raji, RAJI (Hematopoietic and lymphoid, Lymphoma)
# [19] = Rec1, REC1 (Hematopoietic and lymphoid, Lymphoma)
# [20] = SAOS-2, 72 h, SAOS2, Soft Tissue, Osteosarcoma, 72 h
# [21] = SHP77, 72 h, SHP77, Lung, SCLC, 72 h
# [22] = SJRH30, 72 h, SJRH30, Soft Tissue, Sarcoma, 72 h
# [23] = SJSA-1, 72 h, SJSA1, Soft Tissue, Osteosarcoma, 72 h
# [24] = SK-LMS-1, 72 h, SKLMS1, Soft Tissue, Sarcoma, 72 h
# [25] = SK-MEL3, 72 h, SKMEL3, Skin, Melanoma, 72 h
# [26] = SK-MEL-1, SKMEL1 (Skin, Melanoma)
# [27] = SK-MEL-28, SKMEL28 (Skin, Melanoma)
# [28] = SK-MES-1, 72 h, SKMES1, Lung, NSCLC, 72 h
structure (smiles),measurement,setting,value
"C[C@]1(C(N)=O)CC[C@@H](n2c(Nc3c(Cl)cc(Cl)cc3Cl)nc3cnc(N[C@@H]4CCOC[C@H]4F)nc32)CC1 [Compound 1, cis-4-[2-{[(3S,4R)-3-fluorooxan-4-yl]amino}-8-(2,4,6-trichloroanilino)-9H-purin-9-yl]-1-methylcyclohexane-1-carboxamide]",IC50,"NCI-H441, 72 h, NCIH441, Lung, NSCLC, 72 h",1250 nM
same,GI50,[1],327 nM
same,IC50,[1],> 10000 nM
same,GI50,[2],> 10000 nM
same,IC50,[2],> 10000 nM
same,GI50,"NCI-H508, NCIH508 (Colon)",28.8 nM
same,IC50,"NCI-H508, NCIH508 (Colon)",48.1 nM
same,GI50,[3],3700 nM
same,IC50,[3],6610 nM
same,GI50,[4],991 nM
same,IC50,[4],2130 nM
same,GI50,[5],2750 nM
same,IC50,[5],> 10000 nM
same,GI50,[6],1440 nM
same,IC50,[6],2640 nM
same,GI50,"NCI-H747, NCIH747 (Colon)",12 nM
same,IC50,"NCI-H747, NCIH747 (Colon)",44.5 nM
same,GI50,[7],44 nM
same,IC50,[7],50.7 nM
same,GI50,[8],340 nM
same,IC50,[8],> 10000 nM
same,GI50,[9],63 nM
same,IC50,[9],96.9 nM
same,GI50,[10],> 10000 nM
same,IC50,[10],> 10000 nM
same,GI50,[11],41.6 nM
same,IC50,[11],80 nM
same,GI50,"PFSK-1, PFSK1 (CNS, Glioma)",23.4 nM
same,IC50,"PFSK-1, PFSK1 (CNS, Glioma)",> 10000 nM
same,GI50,[12],8.3 nM
same,IC50,[12],9.2 nM
same,GI50,"RKOE6, RKOE6 (Colon)",75.3 nM
same,IC50,"RKOE6, RKOE6 (Colon)",107 nM
same,GI50,[13],9 nM
same,IC50,[13],59.9 nM
same,GI50,[14],80.1 nM
same,IC50,[14],370 nM
same,GI50,[15],71.6 nM
same,IC50,[15],94.5 nM
same,GI50,[16],1090 nM
same,IC50,[16],2480 nM
same,GI50,[17],359 nM
same,IC50,[17],2960 nM
same,GI50,[18],179 nM
same,IC50,[18],> 10000 nM
same,GI50,[19],5.3 nM
same,IC50,[19],193 nM
same,GI50,[20],3570 nM
same,IC50,[20],6880 nM
same,GI50,"SCC-4, SCC4 (Head and Neck)",51.2 nM
same,IC50,"SCC-4, SCC4 (Head and Neck)",108 nM
same,GI50,"SCC-9, SCC9 (Head and Neck)",117 nM
same,IC50,"SCC-9, SCC9 (Head and Neck)",280 nM
same,GI50,"SCC-25, SCC25 (Head and Neck)",43.9 nM
same,IC50,"SCC-25, SCC25 (Head and Neck)",51 nM
same,GI50,"SCaBER, SCABER (Bladder)",66.5 nM
same,IC50,"SCaBER, SCABER (Bladder)",77.2 nM
same,GI50,[21],4790 nM
same,IC50,[21],5820 nM
same,GI50,[22],219 nM
same,IC50,[22],1470 nM
same,GI50,[23],1160 nM
same,IC50,[23],2460 nM
same,GI50,"SK-BR-3, SKBR3 (Breast)",6810 nM
same,IC50,"SK-BR-3, SKBR3 (Breast)",8450 nM
same,GI50,[24],146 nM
same,IC50,[24],166 nM
same,GI50,[25],28.4 nM
same,IC50,[25],62.5 nM
same,GI50,[26],1 nM
same,IC50,[26],29.1 nM
same,GI50,[27],27.9 nM
same,IC50,[27],57.1 nM
same,GI50,[28],103 nM
same,IC50,[28],122 nM
